Data from patent US8648066B2 (Exelixis, Inc., priority 2009, dated 2014).

Assays:
[1] = target: mTOR/GbL/Raptor (mTORC1) (Homo sapiens, UniProt P42345); test: mTOR/GbL/Raptor (mTORC1) ELISA assay; type: biochemical; conditions: phosphorylation of 4E-BP1; 0.2 nM mTORC1, 10 μM ATP; read-out: IC50 in this assay (mTORC1 ELISA)
In short: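 Human mTORC1 (0.2 nM) phosphorylated 50 nM His-tagged 4E-BP1 with 10 µM ATP in HEPES pH 7.2 containing 10 mM MnCl2, 120 min at ambient temperature. Substrate was captured on Ni-chelate plates; phospho-4E-BP1 was detected by primary antibody and HRP secondary with luminescence.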

[2] = target: PI3Kα (Homo sapiens, UniProt P42336); test: PI3K biochemical assay (luciferase-luciferin ATP consumption); conditions: 1.5 nM enzyme, 1 μM ATP, 10 μM PIP2; read-out: IC50 for PI3Kα in this assay
Sequence of PI3Kα (P42336 whole entry, species assumed): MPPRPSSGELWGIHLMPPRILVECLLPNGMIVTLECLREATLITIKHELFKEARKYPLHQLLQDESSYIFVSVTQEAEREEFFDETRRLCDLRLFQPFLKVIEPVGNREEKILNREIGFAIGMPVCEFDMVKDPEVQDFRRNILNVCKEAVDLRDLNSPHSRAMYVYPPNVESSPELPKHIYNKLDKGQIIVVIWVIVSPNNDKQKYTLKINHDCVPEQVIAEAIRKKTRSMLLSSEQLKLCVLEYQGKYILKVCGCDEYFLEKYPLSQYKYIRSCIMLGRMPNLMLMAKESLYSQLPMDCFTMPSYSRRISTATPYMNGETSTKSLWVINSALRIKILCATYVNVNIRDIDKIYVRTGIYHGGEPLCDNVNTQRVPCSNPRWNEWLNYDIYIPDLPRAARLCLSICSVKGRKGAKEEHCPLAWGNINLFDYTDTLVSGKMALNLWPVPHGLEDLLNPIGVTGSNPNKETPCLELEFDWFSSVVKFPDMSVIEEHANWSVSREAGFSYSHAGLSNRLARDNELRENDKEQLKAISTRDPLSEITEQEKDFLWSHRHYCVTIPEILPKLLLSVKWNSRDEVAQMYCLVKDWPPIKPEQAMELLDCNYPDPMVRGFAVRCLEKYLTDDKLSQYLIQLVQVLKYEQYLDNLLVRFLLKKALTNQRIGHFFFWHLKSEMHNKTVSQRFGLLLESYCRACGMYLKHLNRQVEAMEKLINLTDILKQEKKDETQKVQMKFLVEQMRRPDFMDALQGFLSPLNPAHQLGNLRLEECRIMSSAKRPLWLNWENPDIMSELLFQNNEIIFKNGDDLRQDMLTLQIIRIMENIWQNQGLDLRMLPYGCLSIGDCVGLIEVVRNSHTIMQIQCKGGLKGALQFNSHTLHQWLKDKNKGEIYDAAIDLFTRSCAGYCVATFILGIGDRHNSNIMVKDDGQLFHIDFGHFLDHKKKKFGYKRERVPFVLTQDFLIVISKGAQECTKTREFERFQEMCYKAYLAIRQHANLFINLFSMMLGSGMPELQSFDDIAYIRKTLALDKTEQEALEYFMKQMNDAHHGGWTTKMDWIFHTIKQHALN
Sequence of PI3Kα (P27986 whole entry partner, species assumed): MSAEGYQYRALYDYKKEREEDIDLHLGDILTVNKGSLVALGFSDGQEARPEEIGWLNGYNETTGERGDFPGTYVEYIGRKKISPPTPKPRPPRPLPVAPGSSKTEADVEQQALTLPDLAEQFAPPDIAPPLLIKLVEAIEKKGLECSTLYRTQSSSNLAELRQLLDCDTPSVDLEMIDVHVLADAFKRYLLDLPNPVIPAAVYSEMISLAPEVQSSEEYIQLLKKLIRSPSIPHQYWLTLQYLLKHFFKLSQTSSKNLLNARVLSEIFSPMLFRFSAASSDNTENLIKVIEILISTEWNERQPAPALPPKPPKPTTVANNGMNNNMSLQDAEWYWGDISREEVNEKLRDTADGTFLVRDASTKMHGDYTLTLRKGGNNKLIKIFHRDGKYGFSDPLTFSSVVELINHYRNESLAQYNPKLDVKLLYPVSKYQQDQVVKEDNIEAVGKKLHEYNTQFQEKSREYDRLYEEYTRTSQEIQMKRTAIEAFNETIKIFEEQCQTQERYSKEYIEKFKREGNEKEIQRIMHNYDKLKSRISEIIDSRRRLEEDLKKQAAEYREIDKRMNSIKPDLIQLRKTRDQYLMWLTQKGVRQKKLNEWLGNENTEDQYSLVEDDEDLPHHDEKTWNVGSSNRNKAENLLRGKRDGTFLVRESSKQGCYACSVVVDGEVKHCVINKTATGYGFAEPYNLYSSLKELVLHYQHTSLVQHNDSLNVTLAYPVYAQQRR
Description: PI3Kα activity is measured as the percent of ATP consumed following the kinase reaction using luciferase-luciferin-coupled chemiluminescence. Reactions were conducted in 384-well white, medium binding microtiter plates (Greiner). Kinase reactions were initiated by combining test compounds, ATP, substrate (PIP2), and kinase in a 20 μL volume in a buffer solution. The standard PI3Kalpha assay buffer is composed 50 mM Tris, pH 7.5, 1 mM EGTA, 10 mM MgCl2, 1 mM DTT and 0.03% CHAPS. The standard assay concentrations for enzyme, ATP, and substrate are 1.5 nM, 1 μM, and 10 μM, respectively. The reaction mixture was incubated at ambient temperature for approximately 2 h. Following the kinase reaction, a 10 μL aliquot of luciferase-luciferin mix (Promega Kinase-Glo) was added and the chemiluminescence signal measured using a Victor2 plate reader (Perkin Elmer). Total ATP consumption was limited to 40-60% and IC50 values of control compounds correlate well with literature references. Substituting PI3Kα with PI3Kβ, PI3Kγ, or PI3Kδ, the inhibitory activity of the compounds for the other isoforms of I3K were measured.

SMILES | IC50 [1] | IC50 [2]
CC1(C)CCc2ncnc(N3CCOc4ccc(-c5cnc6c(c5)OCC(=O)N6)cc4C3)c2C1 [Example 572, 7-[4-(6,6-dimethyl-5,6,7,8-tetrahydroquinazolin-4-yl)-2,3,4,5-tetrahydro-1,4-benzoxazepin-7-yl]-2H-pyrido[3,2-b][1,4]oxazin-3(4H)-one] | ≥ 2000 nM | 1000 to 2000 nM
CC(=O)Nc1cc(-c2ccc3c(c2)CN(c2ncnc4c2CC(C)(C)CC4)CCO3)cnc1Cl [Example 622, N-{2-chloro-5-[4-(6,6-dimethyl-5,6,7,8-tetrahydroquinazolin-4-yl)-2,3,4,5-tetrahydro-1,4-benzoxazepin-7-yl]pyridin-3-yl}acetamide] | 250 to 1000 nM | 1000 to 2000 nM
Cc1nc2ccc(-c3ccc4c(c3)CN(c3nc(SCc5ccccc5)nc5c3CCC5)CCO4)cc2[nH]1 [Example 53, 7-(2-methyl-1H-benzimidazol-6-yl)-4-{2-[(phenylmethyl)thio]-6,7-dihydro-5H-cyclopenta[d]pyrimidin-4-yl}-2,3,4,5-tetrahydro-1,4-benzoxazepine] | 250 to 1000 nM | ≥ 2000 nM
c1ccc2sc(-c3ccc4c(c3)CN(c3ccnc5ccccc35)CCO4)cc2c1 [Example 206, 7-(1-benzothien-2-yl)-4-quinolin-4-yl-2,3,4,5-tetrahydro-1,4-benzoxazepine] | 1000 to 2000 nM | ≥ 2000 nM
COc1ccc(-c2ccc3c(c2)CN(c2nc(CN(C)C)nc4c2CC(C)(C)CC4)CCO3)cc1 [Example 329, 1-(6,6-dimethyl-4-{7-[4-(methyloxy)phenyl]-2,3-dihydro-1,4-benzoxazepin-4(5H)-yl}-5,6,7,8-tetrahydroquinazolin-2-yl)-N,N-dimethylmethanamine] | ≥ 2000 nM | 1000 to 2000 nM
Cc1nc2c(-c3ccc4c(c3)CN(c3ncnc5c3CC(C)(C)CC5)CCO4)cncc2[nH]1 [Example 475, 4-(6,6-dimethyl-5,6,7,8-tetrahydroquinazolin-4-yl)-7-(2-methyl-3H-imidazo[4,5-c]pyridin-7-yl)-2,3,4,5-tetrahydro-1,4-benzoxazepine] | ≥ 2000 nM | ≥ 2000 nM
COC(=O)Nc1cc(-c2ccc3c(c2)CN(c2ncnc4c2CC(C)(C)CC4)CCO3)cnc1Cl [Example 581, methyl {2-chloro-5-[4-(6,6-dimethyl-5,6,7,8-tetrahydroquinazolin-4-yl)-2,3,4,5-tetrahydro-1,4-benzoxazepin-7-yl]pyridin-3-yl}carbamate] | 1000 to 2000 nM | ≥ 2000 nM
Cc1ncc(S(=O)(=O)N(C)C)c(N2CCOc3ccc(-c4cnc5nc(C)[nH]c5c4)cc3C2)n1 [Example 611, N,N,2-trimethyl-4-[7-(2-methyl-1H-imidazo[4,5-b]pyridin-6-yl)-2,3-dihydro-1,4-benzoxazepin-4(5H)-yl]pyrimidine-5-sulfonamide] | 250 to 1000 nM | 1000 to 2000 nM
Cc1ncc(S(=O)(=O)N2CCOCC2)c(N2CCOc3ccc(-c4cnc5nc(C)[nH]c5c4)cc3C2)n1 [Example 561, 7-(2-methyl-1H-imidazo[4,5-b]pyridin-6-yl)-4-[2-methyl-5-(morpholin-4-ylsulfonyl)pyrimidin-4-yl]-2,3,4,5-tetrahydro-1,4-benzoxazepine] | 250 to 1000 nM | 1000 to 2000 nM
CN(C)Cc1nc2c(c(N3CCOc4ccc(-c5cccc(C(N)=O)c5)cc4C3)n1)CC(C)(C)CC2 [Example 433, 3-(4-{2-[(dimethylamino)methyl]-6,6-dimethyl-5,6,7,8-tetrahydroquinazolin-4-yl}-2,3,4,5-tetrahydro-1,4-benzoxazepin-7-yl)benzamide] | ≥ 2000 nM | 1000 to 2000 nM
[H]/N=c1\ncc(-c2ccc3c(c2)CN(c2ncnc4c2CC(C)(C)CC4)CCO3)cn1O [Example 231, (2E)-5-[4-(6,6-dimethyl-5,6,7,8-tetrahydroquinazolin-4-yl)-2,3,4,5-tetrahydro-1,4-benzoxazepin-7-yl]-2-iminopyrimidin-1(2H)-ol] | 1000 to 2000 nM | ≥ 2000 nM
C[C@H](NC(=O)OCc1ccccc1)c1nc2ncc(-c3ccc4c(c3)CN(c3ncnc5c3CC(C)(C)CC5)CCO4)cc2[nH]1 [Example 647, phenylmethyl [(1S)-1-{6-[4-(6,6-dimethyl-5,6,7,8-tetrahydroquinazolin-4-yl)-2,3,4,5-tetrahydro-1,4-benzoxazepin-7-yl]-1H-imidazo[4,5-b]pyridin-2-yl}ethyl]carbamate] | 250 to 1000 nM | ≥ 2000 nM

Next, values leading:

IC50 [1] | IC50 [2] | SMILES
250 to 1000 nM | 1000 to 2000 nM | Cc1cc(N2CCOc3ccc(-c4ccc5[nH]cnc5c4)cc3C2)nc(N)n1 [Example 688, 4-[7-(1H-benzimidazol-5-yl)-2,3-dihydro-1,4-benzoxazepin-4(5H)-yl]-6-methylpyrimidin-2-amine]
≥ 2000 nM | 1000 to 2000 nM | CCNc1nc2ccc(-c3ccc4c(c3)CN(c3nc(C)nc5cc(OCC)ccc35)CCO4)cc2[nH]1 [Example 288, N-ethyl-6-{4-[7-(ethyloxy)-2-methylquinazolin-4-yl]-2,3,4,5-tetrahydro-1,4-benzoxazepin-7-yl}-1H-benzimidazol-2-amine]
250 to 1000 nM | ≥ 2000 nM | Cc1nc2ccc(-c3ccc4c(c3)CN(c3ncnc5c3CN(C3CC3)C5)CCO4)cc2[nH]1 [Example 87, 4-(6-cyclopropyl-6,7-dihydro-5H-pyrrolo[3,4-d]pyrimidin-4-yl)-7-(2-methyl-1H-benzimidazol-6-yl)-2,3,4,5-tetrahydro-1,4-benzoxazepine]
250 to 1000 nM | 1000 to 2000 nM | Cc1nc2ccc(-c3ccc4c(c3)CN(c3ncnc(C)c3CC(C)C)CCO4)cc2[nH]1 [Example 67, 7-(2-methyl-1H-benzimidazol-6-yl)-4-[6-methyl-5-(2-methylpropyl)pyrimidin-4-yl]-2,3,4,5-tetrahydro-1,4-benzoxazepine]
250 to 1000 nM | 1000 to 2000 nM | Cc1nc2ccc(-c3ccc4c(c3)CN(c3ncnc(Cc5ccccc5)c3C)CCO4)cc2[nH]1 [Example 41, 7-(2-methyl-1H-benzimidazol-6-yl)-4-[5-methyl-6-(phenylmethyl)pyrimidin-4-yl]-2,3,4,5-tetrahydro-1,4-benzoxazepine]
≥ 2000 nM | 1000 to 2000 nM | c1ccc(-c2nc(N3CCOc4ccc(-c5ccc6nc[nH]c6c5)cc4C3)c3ccccc3n2)cc1 [Example 232, 7-(1H-benzimidazol-6-yl)-4-(2-phenylquinazolin-4-yl)-2,3,4,5-tetrahydro-1,4-benzoxazepine]
≥ 2000 nM | ≥ 2000 nM | Cc1nc2ccc(-c3ccc4c(c3)CN(c3ccccn3)CCO4)cc2[nH]1 [Example 104, 7-(2-methyl-1H-benzimidazol-6-yl)-4-pyridin-2-yl-2,3,4,5-tetrahydro-1,4-benzoxazepine]
≥ 2000 nM | ≥ 2000 nM | Cc1nc2ccc(-c3ccc4c(c3)CN(c3ccnc(N)c3)CCO4)cc2[nH]1 [Example 262, 4-[7-(2-methyl-1H-benzimidazol-6-yl)-2,3-dihydro-1,4-benzoxazepin-4(5H)-yl]pyridin-2-amine]
50 to 250 nM | 50 to 250 nM | Cc1nc2ccc(-c3ccc4c(c3)CN(c3cc(C(C)(C)O)nc5c3CC(C)(C)CC5)CCO4)cc2[nH]1 [Example 362]
250 to 1000 nM | 1000 to 2000 nM | Cc1nc2ccc(-c3ccc4c(c3)CN(c3ncnc5c3CSC5)CCO4)cc2[nH]1 [Example 75, 4-(5,7-dihydrothieno[3,4-d]pyrimidin-4-yl)-7-(2-methyl-1H-benzimidazol-6-yl)-2,3,4,5-tetrahydro-1,4-benzoxazepine]
1000 to 2000 nM | ≥ 2000 nM | Cc1ccc(N2Cc3ncnc(N4CCOc5ccc(-c6ccc7nc(C)[nH]c7c6)cc5C4)c3C2)cc1 [Example 88, 7-(2-methyl-1H-benzimidazol-6-yl)-4-[6-(4-methylphenyl)-6,7-dihydro-5H-pyrrolo[3,4-d]pyrimidin-4-yl]-2,3,4,5-tetrahydro-1,4-benzoxazepine]
≥ 2000 nM | ≥ 2000 nM | Cc1nc2cc(-c3ccc4c(c3)CN(c3ccnc5ccccc35)CCO4)ccc2s1 [Example 128, 7-(2-methyl-1,3-benzothiazol-5-yl)-4-quinolin-4-yl-2,3,4,5-tetrahydro-1,4-benzoxazepine]
1000 to 2000 nM | 1000 to 2000 nM | CSc1nc2c(c(N3CCOc4ccc(-c5ccc6nc(C)[nH]c6c5)cc4C3)n1)CC(C)C2 (stereo not drawn) [Example 71, 7-(2-methyl-1H-benzimidazol-6-yl)-4-[6-methyl-2-(methylthio)-6,7-dihydro-5H-cyclopenta[d]pyrimidin-4-yl]-2,3,4,5-tetrahydro-1,4-benzoxazepine]
≥ 2000 nM | ≥ 2000 nM | CCNC(=O)c1cccc(-c2ccc3c(c2)CN(c2nc(C)nc4cc(OC)ccc24)CCO3)c1 [Example 638, N-ethyl-3-{4-[2-methyl-7-(methyloxy)quinazolin-4-yl]-2,3,4,5-tetrahydro-1,4-benzoxazepin-7-yl}benzamide]
250 to 1000 nM | ≥ 2000 nM | CCn1cnc2cc(-c3ccc4c(c3)CN(c3ccnc5ccccc35)CCO4)ccc21 [Example 127, 7-(1-ethyl-1H-benzimidazol-5-yl)-4-quinolin-4-yl-2,3,4,5-tetrahydro-1,4-benzoxazepine]
